{
  "source": "patent US11479536B1",
  "about": "(King Abdulaziz University, priority 2022, dated 2022)",
  "key": {"AMPK (phospho-protein)": {"tested_on": "AMPK (phospho-protein)", "assay": "Phosphoproteome array test, phospho-AMPK signal in lysates of treated HL-60 cells", "format": "cell-based, human", "method": "The phosphorylation profile of AMPK kinase (among other 37 kinases) was performed using the Proteome Profiler Human Phospho-Kinase Antibody Array Kit by R&D Systems (Minneapolis, Minn., USA) according to the protocol. Briefly, the total cellular protein was extracted using the Lysis buffer and was quantified using Bio-Rad DC Protein Assay kit (Hercules, Calif., USA). Nitrocellulose membrane set (A&B), pre-spotted with kinase-specific capture antibodies, were first blocked with Array Buffer-1 at RT for 30 min on a rocking platform shaker. Approximately 600 μg of protein concentrate was diluted in the buffer provided and was added onto the membrane set, and the membranes were incubated overnight at 4° C. in an 8-well plate. Subsequently, membranes were washed with Wash Buffer and incubated with appropriate Detection Antibody cocktails for 2 h at RT. Streptavadin-HRP (1:2000) was added onto membranes and incubated for 30 min at RT. Membranes were washed, and Chemiluminescent Detection Reagents 1&2 were applied in equal volumes for detection. The signals were detected on C-DiGit® Blot Scanner (LI-COR, Odyssey Imaging Systems, Lincoln, Nebr., USA) using Image Studio 5.0 software."}, "AMPK (A1/B1/G2)": {"target": "T1, AMPK (A1/B1/G2) (Homo sapiens, UniProt Q13131+Q9UGJ0+Q9Y478)", "T1 construct": "This system includes a recombinant full-length human AMPK enzyme; purchased Promega", "assay": "Cell-free AMPK inhibition assay, AMPK (A1/B1/G2) Kinase Enzyme system", "format": "biochemical", "settings": "recombinant full-length human AMPK", "method": "The inhibitory effect of serial concentrations of MAK compounds on AMPK Kinase activity was investigated using the highly sensitive AMPK (A1/B1/G2) Kinase Enzyme assay system (Promega, Madison Wis. USA). This system includes a recombinant full-length human AMPK enzyme and a substrate for the enzyme. The experiment was conducted according to the manufacturer's instructions in the provided protocol. Mean values of replicates were calculated in comparison to the control group."}, "T47D spheroids [1]": {"tested_on": "T47D spheroids", "assay": "Cytotoxicity assay (MTT) in spheroid culture, T47D", "format": "cell-based, human", "settings": "for IC50: Homo sapiens, T47D, 3D spheroid model, 48 h, MTT; for reduction of spheroid size: T47D spheroids treated at IC50 for 48 h, vs control", "method": "1×10^4 cells of each cell line (MCF7 and T47D) were seeded into ultra-low attachment 96 well plate at 37° C. and grown for 48 hours in DMEM media to result in the formation of spheroids. Then, the cells were subjected to the different treatment conditions before performing the assays.\nThe cytotoxic effects of MAK compounds were assessed against MCF7 and T47D cell lines using MTT cell viability assay. The cells were treated for 48 hours with different concentrations of each MAK compound and the control cells were subjected to the vehicle (0.1% DMSO). Then, 10% of 5 mg/mL MTT was added to each well containing treated or control cells, and mixture was incubated at 37° C. for 3 hours. After that, the MTT-containing media was replaced with 100 μL DMSO and incubated for 10 minutes at room temperature before measuring the absorbance for each well at 570 nm. According to the measured absorbance, the IC50 was calculated for each compound. All the experiments were performed in biological and experimental replicates."}, "MCF7 spheroids": {"tested_on": "MCF7 spheroids", "assay": "Live and dead assay of tumor spheroids, MCF7", "format": "cell-based, human", "settings": "48 h post treatment, control 10.33±2.40%", "method": "(§1) The Live/Dead assay contains a mixture of two staining fluorescent dyes that label live and dead cells to enable differentiation between them. The cell viability of the cells in response to the treatment with MAK compounds was examined. The cells were grown for 48 hours and treated with MAK compound for additional 48 hours, then Cytox RED solution reagent was added. After incubation at 37° C. under 5% CO2 for 1 hour, the samples were immediately analyzed by flow cytometry. Mean values and standard deviation of replicates were calculated in comparison to the control group."}, "T47D spheroids [2]": {"tested_on": "T47D spheroids", "assay": "Live and dead assay of tumor spheroids, T47D", "format": "cell-based, human", "settings": "48 h post treatment, control 2.60±0.31%", "method": "as §1"}, "[3]": {"assay": "Maximum kinetic aqueous solubility", "format": "physicochemical", "settings": "phosphate buffer with 2% DMSO, kinetic from dmso stock, 2% DMSO/PBS, pH 7.4, read-out: maximum kinetic aqueous solubility (saturation)", "method": "Solubility assays were performed using Millipore MultiScreen® HTS-PFC Filter Plates designed for solubility assays (EMD Millipore, Billerica, Mass.). Assays were run in triplicate. The 96-well plates consist of two chambers separated by a filter. Liquid handling was performed using JANUS® Verispan and MTD workstations (Perkin Elmer, Waltham, Mass.). 4 μL of MAK-1 or MAK-6 solution (10 mM in DMSO) was added to 196 μL of phosphate buffer (45 mM potassium phosphate, 45 mM sodium acetate, 45 mM ethanolamine, pH=7.4) in the top chamber to give a final DMSO concentration of 2% and a theoretical drug concentration of 200 μM. Plates were gently shaken for 90 min and then subjected to vacuum. Insoluble drug is captured on the filter. 160 μL of the filtrate is transferred to 96-well Griener UV Star® analysis plates (Sigma-Aldrich, St. Louis, Mo.) containing 40 μL of acetonitrile. The test compound concentration in the filtrate is measured by UV absorbance on a Spectromax® Plus microplate reader (Molecular Devices, Sunnyvale, Calif.) using Softmax Pro software v.5.4.5. Absorbances at 5 wavelengths (280, 300, 320, 340, and 360 nm) were summed to generate the UV signal. Standard curves were generated by adding 4 μL of five concentrations of test compound in DMSO to 40 μL of acetonitrile in UV Star plates followed by 156 μL of the appropriate solubility medium. […]"}, "CYP2D6": {"target": "T2, CYP2D6 (Homo sapiens, UniProt P10635)", "T2 construct": "purchased Fisher Scientific; host or cells: insect supersomes", "T2 sequence (P10635 whole entry)": "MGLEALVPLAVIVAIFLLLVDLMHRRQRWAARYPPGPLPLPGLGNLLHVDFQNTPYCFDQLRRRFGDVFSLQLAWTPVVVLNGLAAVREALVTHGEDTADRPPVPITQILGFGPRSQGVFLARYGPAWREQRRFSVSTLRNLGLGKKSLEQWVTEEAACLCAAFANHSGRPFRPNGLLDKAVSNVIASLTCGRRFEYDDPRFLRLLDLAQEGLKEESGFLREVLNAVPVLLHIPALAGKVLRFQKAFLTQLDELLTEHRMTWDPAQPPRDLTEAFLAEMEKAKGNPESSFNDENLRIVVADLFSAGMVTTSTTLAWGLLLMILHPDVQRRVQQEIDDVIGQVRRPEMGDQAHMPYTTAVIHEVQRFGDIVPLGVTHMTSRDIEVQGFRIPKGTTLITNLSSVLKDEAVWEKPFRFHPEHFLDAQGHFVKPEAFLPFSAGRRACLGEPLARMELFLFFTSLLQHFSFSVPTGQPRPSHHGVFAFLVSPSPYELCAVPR", "assay": "Inhibition assay of human CYP450 enzymes, 2D6", "format": "in vitro ADME", "method": "The two compounds MAK-1 and MAK-6 were assessed for its ability to inhibit the three major human CYP450 enzymes, 3A4, 2D6 and 2C9. Assays were run in triplicate. Expressed enzymes in insect supersomes (Fisher Scientific, Waltham, Mass.) were used to minimize non-specific binding and membrane partitioning issues (McMasters et al., 2007). The 3A4 assay uses testosterone as a substrate and analysis was performed by LC/MS/MS on a Waters Xevo TQ instrument as described above using positive electrospray ionization. Assay acceptance criteria was 20% for all standards and 25% for the LLOQ. The 2D6 and 2C9 assays use fluorescent substrates (3-[2-(N,N-diethylamino)ethyl]-7-methoxy-4-methylcoumarin for 2D6; 7-methoxy-4-(trifluoromethyl)coumarin for 2C9) and were analyzed on an Envision plate reader. GraphPad® Prism v 5.04 was used for nonlinear fitting of data to generate IC50 values."}},
  "data": [
    {"smiles": "COc1cccc(C(=O)Nc2ccc(CC(=O)NCc3ccccc3)cc2)c1", "note": "[MAK-1, N-(4-(2-(benzylamino)-2-oxoethyl)phenyl)-3-methoxybenzamide]", "values": [
      {"measurement": "decrease of phospho-protein AMPK existence", "setting": "AMPK (phospho-protein); compound at 6 μM", "value": 61.8, "unit": "%"},
      {"measurement": "IC50", "setting": "AMPK (A1/B1/G2)", "value": 4.8, "unit": "nM"},
      {"measurement": "IC50", "setting": "T47D spheroids [1]", "value": "13.9 ± 0.095", "unit": "µM"},
      {"measurement": "reduction of spheroid size", "setting": "T47D spheroids [1]", "value": "noticeable reduction"},
      {"measurement": "dead rate (dead cells), mean±SEM", "setting": "MCF7 spheroids", "value": "36.33±0.88", "unit": "%"},
      {"measurement": "dead rate (dead cells), mean±SEM", "setting": "T47D spheroids [2]", "value": "42.43±0.49", "unit": "%"},
      {"measurement": "solubility kinetic at 90 min", "setting": "[3]", "value": 9.4, "unit": "µM"},
      {"measurement": "inhibition of CYP2D6", "setting": "CYP2D6; concentrations up to 10 μM", "value": "no inhibition"}
    ]},
    {"smiles": "O=C(Cc1ccc(NC(=O)c2cccc(Cl)c2)cn1)NCc1ccccc1", "note": "[MAK-6, N-(6-(2-(benzylamino)-2-oxoethyl)pyridin-3-yl)-3-chlorobenzamide]", "values": [
      {"measurement": "decrease of phospho-protein AMPK existence", "setting": "AMPK (phospho-protein); compound at 8 μM", "value": 92.1, "unit": "%"},
      {"measurement": "IC50", "setting": "AMPK (A1/B1/G2)", "value": 5.6, "unit": "nM"},
      {"measurement": "IC50", "setting": "T47D spheroids [1]", "value": "7.29 ± 0.085", "unit": "µM"},
      {"measurement": "reduction of spheroid size", "setting": "T47D spheroids [1]", "value": "noticeable reduction"},
      {"measurement": "dead rate (dead cells), mean±SEM", "setting": "MCF7 spheroids", "value": "34.27±0.49", "unit": "%"},
      {"measurement": "dead rate (dead cells), mean±SEM", "setting": "T47D spheroids [2]", "value": "37.97±0.27", "unit": "%"},
      {"measurement": "solubility kinetic at 90 min", "setting": "[3]", "value": 3.7, "unit": "µM"},
      {"measurement": "inhibition of CYP2D6", "setting": "CYP2D6; concentration not given", "value": "did not display any inhibitory activity"}
    ]}
  ]
}
